Assay results reported in paper PMC11882969 (Nature Communications, 2025).
Where “and” joins values, the source holds several entries; their conditions need not be identical. Identical values can stand only once. Like-named read-outs stand apart in the source and are kept apart here.

Assays:
CB1R = experiment: Bimane fluorescence of labeled CB1R; assay type: biochemical, human; conditions: 10 μM ligand; apo 459 nm
Protocol: A minimal cysteine version of CB1R was generated[85] where all the cysteine residues (except C256 and C264) were mutated to alanine. […] Excess label was removed using size exclusion chromatography on a Superdex 200 10/300 Increase column in 20 mM HEPES pH 7.5, 100 mM NaCl and 0.01% MNG/0.001% CHS. Bimane-labeled CB1R at […] was incubated with ligands (10 μM) for one hour at room temperature. Fluorescence data was collected at room temperature in a 150 μL cuvette with a FluorEssence v3.8 software on a Fluorolog instrument (Horiba) in photon-counting mode. Bimane fluorescence was measured by excitation at 370 nm with excitation and emission bandwidth passes of 4 nm. The emission spectra were recorded from 410 to 510 nm with 1 nm increment and 0.1 s integration time.

mice [1] = experiment: Open field test; assay type: in vivo, mouse
Protocol: Thirty min after i.p. injection, mice were placed in the center of a round open-field (2 feet diameter) and their exploratory behavior recorded over the next 15 min. Distance traveled was used to represent open field behavior.

[2] = molecular target: panel of 320 non-olfactory GPCRs (Homo sapiens, UniProt Q9HC97); assay type: cell-based
[3] = molecular target: panel of 320 non-olfactory GPCRs (Homo sapiens, UniProt O95136); assay type: cell-based
[4] = molecular target: panel of 320 non-olfactory GPCRs (Homo sapiens, UniProt Q9BY21); assay type: cell-based
[5] = molecular target: panel of 320 non-olfactory GPCRs (Homo sapiens, UniProt P35408); assay type: cell-based
[6] = molecular target: panel of 320 non-olfactory GPCRs (Homo sapiens, UniProt Q969N4); assay type: cell-based
[7] = molecular target: panel of 320 non-olfactory GPCRs (Homo sapiens, UniProt Q9GZQ4); assay type: cell-based
[8] = molecular target: panel of 320 non-olfactory GPCRs (Homo sapiens, UniProt P35346); assay type: cell-based
[9] = molecular target: panel of 320 non-olfactory GPCRs (Homo sapiens, UniProt Q8TDV2); assay type: cell-based
[10] = molecular target: panel of 320 non-olfactory GPCRs (Homo sapiens, UniProt Q99680); assay type: cell-based
[11] = molecular target: panel of 320 non-olfactory GPCRs (Homo sapiens, UniProt P48039); assay type: cell-based
[12] = molecular target: panel of 320 non-olfactory GPCRs (Homo sapiens, UniProt Q5T6X5); assay type: cell-based
[13] = molecular target: panel of 320 non-olfactory GPCRs (Homo sapiens, UniProt Q8NFJ6); assay type: cell-based
[14] = molecular target: panel of 320 non-olfactory GPCRs (Homo sapiens, UniProt Q9GZN0); assay type: cell-based
in vitro [15] = conditions: mouse, microsomes, pH 7.4
Protocol: Microsomal incubations were carried out in 96-well plates in 5 aliquots of 30 μL each (one for each time point). […] In the control reactions, the NADPH-cofactor system was substituted with phosphate buffer. […] Five time points over 40 min were analyzed. The reactions were stopped by adding 5 volumes of acetonitrile with internal standard to incubation aliquots, followed by protein sedimentation by centrifuging at 4869 g for 5 min. Each reaction was performed in duplicates. Supernatants were analyzed using the HPLC system coupled with a tandem mass spectrometer. The elimination constant (kel), half-life (T1/2), and intrinsic clearance (Clint) were determined in a plot of ln(AUC) versus time, using linear regression analysis.

in vitro [16] = conditions: mouse, pH 7.4
Protocol: Compounds were added to one chamber and the same volume of PBS buffer pH 7.4 to the other chamber. A standard solution was created by mixing an aliquot of spiked plasma with blank buffer without dialysis. […] The stability samples were immediately diluted with acetonitrile and stored at 4 °C until LC-MS/MS analysis. All samples were diluted 5-fold with 90% acetonitrile with internal standard with subsequent plasma proteins sedimentation by centrifuging at 5,796 g for 5 min. Supernatants were analyzed using HPLC system coupled with tandem mass spectrometer. The percentage of plasma protein-bound compound, recovery and stability were calculated using following equations:7 ProteinBinding=1−arearatioinbuffer/arearatioinplasma×100 8 Recovery=arearatioinbuffer+arearatioinplasma/arearatioinstabilitysample×100 9 Stability=arearatioinrecoverysample/arearatioinstabilitysample×100

mice [17] = experiment: Body temperature by telemetric probe; assay type: in vivo, mouse; conditions: 0.2 mg/kg; for Body temperature (pre-injection = 100): individual animals, sheet Figure7a
Protocol: Body temperature (BT) was measured using a telemetric probe device (HD-X10; Data Science International). Briefly, under anesthesia, the probe device was placed in the mouse abdomen and a subcutaneous tunnel was created from the neck to the abdominal skin, through which a catheter (connected to the probe) was pulled and then inserted into the left carotid artery. Three weeks later, the implanted mice were singly housed in a cage that was placed on top of the DSI receiver (for probe signal detection). We monitored BT continuously over 2 h, in the following manner: 30 min (for baseline), 30 min after injection of the vehicle and then for 1 h after injection of the compound. Data were acquired using the Ponemah Telemetry acquisition software (DSI) and percent changes were presented relative to each mouse’s baseline.

[18] = relative to 100 at 0 min
Protocol: The reactions were stopped by adding 240 μL 90% acetonitrile containing internal standard with subsequent plasma proteins sedimentation by centrifuging at 5796 g for 5 min. Supernatants were analyzed by the HPLC system coupled with a tandem mass spectrometer. The percentage of the test compounds remaining after incubation in plasma and their half-lives (T1/2) were calculated.

hCB2 = hCB2 (Homo sapiens, UniProt P34972); experiment: Cerep HTRF cAMP inhibition assay, hCB2 CHO-K1; assay type: cell-based; set-up: host or cells: HEK293SL cells, transient PEI transfection; conditions: for functional response, concentration-response point (FigS7d): replicate columns;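 for all read-outs here: compounds incubated 30 min at 37 °C with hCB2 CHO-K1 cells, cAMP detected by HTRF, HBSS as basal and reference agonist as stimulated control, run in triplicate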
Protocol: The hCB1/2 CHO-K1 cells (ATCC: CCL-61) are suspended in HBSS buffer (Invitrogen) complemented with 20 mM HEPES (pH 7.4), then distributed in microplates at a density of 5.103 cells/well in the presence of either of the following: HBSS (basal control), the reference agonist (stimulated control) or the test compounds. […] Following 30 min incubation at 37 °C, the cells are lysed, and the fluorescence acceptor (D2-labeled cAMP) and fluorescence donor (anti-cAMP antibody labeled with europium cryptate) are added. […] Each measurement was done in triplicate.

hCB1 = hCB1 (Homo sapiens, UniProt P21554); experiment: DiscoverX PathHunter β-arrestin-2 recruitment; assay type: cell-based;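 note: CHO-K1 cells expressing hCB1, agonist mode, compound exposure with 1% vehicle, chemiluminescence read-out of the β-arrestin-2 recruitment signal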
Sequence of hCB1 (P21554 whole entry): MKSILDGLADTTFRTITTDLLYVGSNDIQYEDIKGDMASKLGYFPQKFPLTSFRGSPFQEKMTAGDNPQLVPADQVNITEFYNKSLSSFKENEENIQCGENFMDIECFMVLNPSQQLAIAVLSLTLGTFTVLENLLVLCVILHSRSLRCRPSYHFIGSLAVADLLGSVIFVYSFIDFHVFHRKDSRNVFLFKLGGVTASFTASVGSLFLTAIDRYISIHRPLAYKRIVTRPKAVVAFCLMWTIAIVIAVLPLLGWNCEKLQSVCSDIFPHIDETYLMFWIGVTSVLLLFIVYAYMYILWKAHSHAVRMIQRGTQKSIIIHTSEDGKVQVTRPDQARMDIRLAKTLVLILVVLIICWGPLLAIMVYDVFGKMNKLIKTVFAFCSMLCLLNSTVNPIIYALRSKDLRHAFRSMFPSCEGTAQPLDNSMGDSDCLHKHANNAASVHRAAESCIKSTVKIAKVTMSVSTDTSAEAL

Sequence of panel of 320 non-olfactory GPCRs (Homo sapiens, UniProt O95136) (O95136 whole entry): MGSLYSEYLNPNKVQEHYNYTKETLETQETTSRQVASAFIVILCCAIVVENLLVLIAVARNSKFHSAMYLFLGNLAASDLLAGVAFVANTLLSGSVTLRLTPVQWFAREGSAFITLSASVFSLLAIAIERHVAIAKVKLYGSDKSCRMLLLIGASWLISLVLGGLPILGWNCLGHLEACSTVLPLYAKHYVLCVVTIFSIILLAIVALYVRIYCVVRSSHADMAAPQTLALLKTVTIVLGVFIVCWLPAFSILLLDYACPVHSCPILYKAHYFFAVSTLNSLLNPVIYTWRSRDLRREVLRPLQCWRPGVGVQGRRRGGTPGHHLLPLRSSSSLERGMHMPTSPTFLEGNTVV
Sequence of panel of 320 non-olfactory GPCRs (Homo sapiens, UniProt Q5T6X5) (Q5T6X5 19-926): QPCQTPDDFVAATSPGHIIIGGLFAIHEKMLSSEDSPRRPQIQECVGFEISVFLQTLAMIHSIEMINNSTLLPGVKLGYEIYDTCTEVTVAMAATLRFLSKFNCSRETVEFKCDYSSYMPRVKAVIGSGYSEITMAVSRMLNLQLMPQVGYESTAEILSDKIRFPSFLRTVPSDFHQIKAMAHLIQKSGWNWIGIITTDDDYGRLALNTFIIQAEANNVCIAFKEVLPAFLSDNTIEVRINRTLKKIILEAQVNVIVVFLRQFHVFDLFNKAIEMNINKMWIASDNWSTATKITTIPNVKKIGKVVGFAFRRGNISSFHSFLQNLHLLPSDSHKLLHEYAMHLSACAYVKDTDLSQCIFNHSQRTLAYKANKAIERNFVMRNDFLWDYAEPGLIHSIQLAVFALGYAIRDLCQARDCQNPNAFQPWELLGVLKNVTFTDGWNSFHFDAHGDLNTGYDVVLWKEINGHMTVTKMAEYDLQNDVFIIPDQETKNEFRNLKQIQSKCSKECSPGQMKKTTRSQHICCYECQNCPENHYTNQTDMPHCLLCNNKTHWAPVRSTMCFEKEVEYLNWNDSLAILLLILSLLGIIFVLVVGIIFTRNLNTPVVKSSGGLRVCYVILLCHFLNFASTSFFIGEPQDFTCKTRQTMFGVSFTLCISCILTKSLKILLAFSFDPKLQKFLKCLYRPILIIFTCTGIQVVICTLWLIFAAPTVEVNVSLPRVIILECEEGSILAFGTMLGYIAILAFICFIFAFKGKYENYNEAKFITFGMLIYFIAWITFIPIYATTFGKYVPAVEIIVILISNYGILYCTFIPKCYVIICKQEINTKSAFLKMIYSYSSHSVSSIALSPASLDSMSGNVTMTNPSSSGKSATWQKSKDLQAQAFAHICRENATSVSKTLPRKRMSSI
Sequence of panel of 320 non-olfactory GPCRs (Homo sapiens, UniProt Q99680) (Q99680 whole entry): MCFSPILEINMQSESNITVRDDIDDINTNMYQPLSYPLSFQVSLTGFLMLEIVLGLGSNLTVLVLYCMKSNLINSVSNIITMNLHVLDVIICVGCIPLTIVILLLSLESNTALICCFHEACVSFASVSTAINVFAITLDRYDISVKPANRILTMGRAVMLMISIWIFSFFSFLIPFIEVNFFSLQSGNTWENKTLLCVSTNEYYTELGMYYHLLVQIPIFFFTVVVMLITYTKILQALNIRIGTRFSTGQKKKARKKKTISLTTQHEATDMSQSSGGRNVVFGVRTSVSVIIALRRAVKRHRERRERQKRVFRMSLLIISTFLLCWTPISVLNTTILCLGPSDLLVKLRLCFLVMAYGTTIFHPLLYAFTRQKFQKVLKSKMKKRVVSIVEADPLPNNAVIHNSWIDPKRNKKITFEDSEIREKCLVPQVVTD
Sequence of panel of 320 non-olfactory GPCRs (Homo sapiens, UniProt Q9GZN0) (Q9GZN0 whole entry): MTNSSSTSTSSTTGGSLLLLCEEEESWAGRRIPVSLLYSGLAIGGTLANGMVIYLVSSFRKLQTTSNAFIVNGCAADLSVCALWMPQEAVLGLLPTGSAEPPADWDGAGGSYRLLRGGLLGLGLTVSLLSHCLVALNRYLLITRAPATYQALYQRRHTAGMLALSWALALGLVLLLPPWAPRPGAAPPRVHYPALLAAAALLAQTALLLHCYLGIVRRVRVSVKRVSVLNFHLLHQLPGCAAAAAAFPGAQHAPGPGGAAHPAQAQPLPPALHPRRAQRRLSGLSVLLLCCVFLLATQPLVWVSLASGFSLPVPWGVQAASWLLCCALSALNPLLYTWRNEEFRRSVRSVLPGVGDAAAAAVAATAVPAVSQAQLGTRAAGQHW
Sequence of panel of 320 non-olfactory GPCRs (Homo sapiens, UniProt Q969N4) (Q969N4 whole entry): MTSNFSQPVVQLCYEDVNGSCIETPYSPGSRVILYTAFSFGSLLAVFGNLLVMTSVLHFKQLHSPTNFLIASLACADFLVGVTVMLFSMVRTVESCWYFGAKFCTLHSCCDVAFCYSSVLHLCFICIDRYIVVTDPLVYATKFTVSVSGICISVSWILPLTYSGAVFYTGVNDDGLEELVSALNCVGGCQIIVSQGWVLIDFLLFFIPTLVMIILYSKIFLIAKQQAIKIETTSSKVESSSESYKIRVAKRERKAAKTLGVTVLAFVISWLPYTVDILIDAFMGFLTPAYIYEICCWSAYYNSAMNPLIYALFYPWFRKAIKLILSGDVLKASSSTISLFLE
Sequence of hCB2 (P34972 whole entry): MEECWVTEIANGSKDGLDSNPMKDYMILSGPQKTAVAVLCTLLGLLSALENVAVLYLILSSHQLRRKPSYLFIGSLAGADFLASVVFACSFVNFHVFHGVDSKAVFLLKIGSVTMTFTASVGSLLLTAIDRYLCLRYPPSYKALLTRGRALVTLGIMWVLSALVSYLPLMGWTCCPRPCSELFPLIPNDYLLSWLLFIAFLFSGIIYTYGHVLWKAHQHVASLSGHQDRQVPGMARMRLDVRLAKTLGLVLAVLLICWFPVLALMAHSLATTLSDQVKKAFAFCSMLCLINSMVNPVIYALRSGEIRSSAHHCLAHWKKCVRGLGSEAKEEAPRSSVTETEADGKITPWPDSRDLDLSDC
Sequence of panel of 320 non-olfactory GPCRs (Homo sapiens, UniProt Q9GZQ4) (Q9GZQ4 whole entry): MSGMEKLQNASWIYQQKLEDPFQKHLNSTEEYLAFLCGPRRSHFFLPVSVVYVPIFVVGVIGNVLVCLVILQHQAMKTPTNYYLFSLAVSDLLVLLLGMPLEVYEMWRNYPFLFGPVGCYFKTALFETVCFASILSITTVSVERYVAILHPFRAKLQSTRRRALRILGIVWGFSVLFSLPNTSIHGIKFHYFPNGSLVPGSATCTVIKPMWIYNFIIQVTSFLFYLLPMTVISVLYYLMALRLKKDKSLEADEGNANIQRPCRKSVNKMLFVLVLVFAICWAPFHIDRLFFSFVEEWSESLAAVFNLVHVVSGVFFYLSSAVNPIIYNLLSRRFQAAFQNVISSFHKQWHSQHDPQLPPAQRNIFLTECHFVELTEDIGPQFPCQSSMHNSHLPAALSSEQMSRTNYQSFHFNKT
Sequence of panel of 320 non-olfactory GPCRs (Homo sapiens, UniProt P35346) (P35346 whole entry): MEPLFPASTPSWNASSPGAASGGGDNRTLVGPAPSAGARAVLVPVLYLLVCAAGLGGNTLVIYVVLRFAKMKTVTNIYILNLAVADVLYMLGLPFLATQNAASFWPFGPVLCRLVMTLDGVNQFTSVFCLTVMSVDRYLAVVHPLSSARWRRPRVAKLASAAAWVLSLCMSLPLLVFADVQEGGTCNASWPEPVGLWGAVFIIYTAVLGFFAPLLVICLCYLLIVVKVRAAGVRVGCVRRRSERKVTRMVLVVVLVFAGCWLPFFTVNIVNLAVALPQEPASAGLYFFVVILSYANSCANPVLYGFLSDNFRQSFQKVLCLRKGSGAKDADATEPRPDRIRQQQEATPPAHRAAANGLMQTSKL
Sequence of panel of 320 non-olfactory GPCRs (Homo sapiens, UniProt Q9HC97) (Q9HC97 whole entry): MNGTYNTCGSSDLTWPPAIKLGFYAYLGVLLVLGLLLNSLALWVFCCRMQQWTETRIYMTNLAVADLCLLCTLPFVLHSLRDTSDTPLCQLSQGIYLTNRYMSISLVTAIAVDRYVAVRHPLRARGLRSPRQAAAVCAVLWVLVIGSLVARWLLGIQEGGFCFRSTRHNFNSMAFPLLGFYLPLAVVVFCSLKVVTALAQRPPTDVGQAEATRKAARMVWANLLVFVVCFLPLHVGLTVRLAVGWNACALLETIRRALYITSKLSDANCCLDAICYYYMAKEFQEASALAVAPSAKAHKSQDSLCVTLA
Sequence of panel of 320 non-olfactory GPCRs (Homo sapiens, UniProt P48039) (P48039 whole entry): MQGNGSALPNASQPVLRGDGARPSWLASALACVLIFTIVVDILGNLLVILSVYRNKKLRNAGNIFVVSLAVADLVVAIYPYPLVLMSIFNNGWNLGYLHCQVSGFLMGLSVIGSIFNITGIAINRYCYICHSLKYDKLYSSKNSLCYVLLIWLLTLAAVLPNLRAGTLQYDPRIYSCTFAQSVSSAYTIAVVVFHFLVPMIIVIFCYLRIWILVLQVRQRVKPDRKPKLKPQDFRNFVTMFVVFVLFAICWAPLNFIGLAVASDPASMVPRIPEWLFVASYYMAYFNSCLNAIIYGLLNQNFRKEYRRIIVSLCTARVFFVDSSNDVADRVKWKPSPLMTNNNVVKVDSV

With `COC(=O)[C@@](C)(NC(=O)c1cc(C)n(-c2cccc(C(F)(F)F)c2)n1)c1cccs1` [‘1350] the “bimane spectrum λmax” value (CB1R) was 463 nm, the “open field locomotion (Figure6a), individual animals” value (mice [1]; Dose 0.2 mg/kg) was 12688.4 and 110206 and 39857.9 and 128163 and 83978.8 and the “open field locomotion (Figure6a), individual animals” value (mice [1]; Dose 0.5 mg/kg) was 61622.6 and 27571.5 and 19916.8 and 94738.4 and 50932.2. For the same molecule, the “dose showing locomotor deficits, open field” value (mice [1]; i.p.) was 0.2 mg/kg, the “Fold of Basal RLU” value [2] was 1 fold and 0.9 fold and 1.1 fold and the “Fold of Basal RLU” value [3] was 1.3 fold and 0.9 fold and 1.2 fold and 1 fold. The “Fold of Basal RLU” value [4] was 1 fold and 0.9 fold and 1.1 fold, the “Fold of Basal RLU” value [5] was 1.7 fold and 1.2 fold and 1.5 fold and the “Fold of Basal RLU” value [6] was 0.6 fold and 0.8 fold and 0.4 fold. For the same molecule, the “Fold of Basal RLU” value [7] was 0.7 fold and 0.9 fold and 0.8 fold, the “Fold of Basal RLU” value [8] was 0.4 and 0.7 and 0.6 and 0.5 and the “Fold of Basal RLU” value [9] was 1.2 and 0.6 and 0.9. The “Fold of Basal RLU” value [10] was 0.7 fold and 0.9 fold and 0.8 fold, the “Fold of Basal RLU” value [11] was 2.2 fold and 2.3 fold and 2.4 fold and the “Fold of Basal RLU” value [12] was 0.7 fold and 0.9 fold and 1.1 fold. The “Fold of Basal RLU” value [13] was 0.9 and 0.7 and 0.8 and 1.1, the “Fold of Basal RLU” value [14] was 1.5 and 1.4 and 1.3 and the remaining at 40 min, 2 µM (in vitro [15]) was 100%. For the same molecule, the recovery at 5 h, 1 μM (in vitro [16]) was 107%, the hypothermia (mice [17]; vs baseline and vehicle) was “increased hypothermia compared to CP-55,940” and the “Body temperature (pre-injection = 100)” value (mice [17]; time 10) was 97.5 and 99.4 (2×). The “Body temperature (pre-injection = 100)” value (mice [17]; time 20) was 90.5 and 93.9 and 97, the “Body temperature (pre-injection = 100)” value (mice [17]; time 30) was 83.8 and 88.4 and 92.4 and the “Body temperature (pre-injection = 100)” value (mice [17]; time 40) was 79.1 and 83.4 and 87.4. The “Body temperature (pre-injection = 100)” value (mice [17]; time 50) was 78.7 and 80.2 and 84.2, the “Body temperature (pre-injection = 100)” value (mice [17]; time 60) was 79.9 and 78.4 and 83.6 and the “Body temperature (pre-injection = 100)” value (mice [17]; time 70) was 81.4 and 78.1 and 83.5. The “Body temperature (pre-injection = 100)” value (mice [17]; time 80) was 82.4 and 78.5 and 83.9, the “Body temperature (pre-injection = 100)” value (mice [17]; time 90) was 82.1 and 79.5 and 83.5 and the “Stability time course, Mean (FigS10e)” value ([18]; Time 0 min) was 100. The “Stability time course, Mean (FigS10e)” value ([18]; Time 20 min) was 84.0951, the “Stability time course, Mean (FigS10e)” value ([18]; Time 40 min) was 66.362 and the “Stability time course, Mean (FigS10e)” value ([18]; Time 60 min) was 47.7148. For the same molecule, the “Stability time course, Mean (FigS10e)” value ([18]; Time 120 min) was 13.638.

In the case of `COC(=O)C(C)(NC(=O)c1cc(C)n(-c2cccc(C(F)(F)F)c2)n1)c1cccs1` (centres unmarked) [‘4042], the Emax (hCB2; CHO-K1, hCB2) is reported as 72%, the “functional response, concentration-response point (FigS7d)” value (from here on “functional response”) (hCB2; Concentration [M] 1e-12) is reported as 9.2 and 15.9 and 20.5 and the “functional response” value (hCB2; Concentration [M] 1e-11) is reported as 54.5 and 33.7 and 39.7. For the same molecule, the “functional response” value (hCB2; Concentration [M] 1e-10) was 72.4 and 68.7 and 74.5, the “functional response” value (hCB2; Concentration [M] 1e-9) was 87.6 and 76.3 and 78.1 and the “functional response” value (hCB2; Concentration [M] 1e-8) was 74.4 and 84.9 and 81.3. For the same molecule, the “functional response” value (hCB2; Concentration [M] 1e-7) was 79.5 and 79.9 and 79.2, the “functional response” value (hCB2; Concentration [M] 1e-6) was 80.1 and 76.3 and 83.8 and the “Cerep cAMP pEC50” value (hCB2; hCB2) was 10.95 [10.7 – 11.6]. The EC50 (hCB2; hCB2) was 0.011 nM, the “DiscoverX ß-arrestin recruitment pEC50” value (hCB1) was 8.7 [8.3 – 9.6] and the “response at log[M] -5 (FigS4f)” value (hCB1; log[M] = -5, individual replicates) was 61.1792 and 63.739. The “response at log[M] -5.47712 (FigS4f)” value (hCB1; log[M] = -5.47712, individual replicates) was 59.4535 and 60.8053, the “response at log[M] -5.95424 (FigS4f)” value (hCB1; log[M] = -5.95424, individual replicates) was 62.531 and 63.2501 and the “response at log[M] -6.43136 (FigS4f)” value (hCB1; log[M] = -6.43136, individual replicates) was 63.3939 and 54.9092. The “response at log[M] -6.90849 (FigS4f)” value (hCB1; log[M] = -6.90849, individual replicates) was 60.9779 and 60, the “response at log[M] -7.38561 (FigS4f)” value (hCB1; log[M] = -7.38561, individual replicates) was 55.1393 and 55.8296 and the “response at log[M] -7.86273 (FigS4f)” value (hCB1; log[M] = -7.86273, individual replicates) was 45.8781 and 43.2321. The “response at log[M] -8.33985 (FigS4f)” value (hCB1; log[M] = -8.33985, individual replicates) was 34.3448 and 36.6457, the “response at log[M] -8.81697 (FigS4f)” value (hCB1; log[M] = -8.81697, individual replicates) was 21.5459 and 25.2274 and the “response at log[M] -9.29409 (FigS4f)” value (hCB1; log[M] = -9.29409, individual replicates) was 9.61 and 9.437. For the same molecule, the EC50 (hCB1; read-out: DiscoverX ß-arrestin recruitment EC50) was 2.3 nM and the Emax (hCB1; read-out: DiscoverX ß-arrestin recruitment Emax) was 71%.

For `Cc1cc(C(=O)NC(C)(c2ccco2)c2ccco2)nn1-c1cccc(C(F)(F)F)c1` [‘4936], the “Fold of Basal RLU” value [2] was 1 fold and 1.4 fold and 0.9 fold, the “Fold of Basal RLU” value [3] was 0.9 fold and 1.1 fold and 1.2 fold and 1 fold and the “Fold of Basal RLU” value [4] was 1 fold and 1.2 fold and 1.1 fold and 1.3 fold. The “Fold of Basal RLU” value [5] was 1.2 fold and 0.9 fold and 1 fold and 1.3 fold, the “Fold of Basal RLU” value [6] was 1.4 fold and 0.8 fold and 1.2 fold and the “Fold of Basal RLU” value [7] was 0.9 fold and 0.8 fold and 0.7 fold. For the same molecule, the “Fold of Basal RLU” value [8] was 1 and 0.7 and 0.8, the “Fold of Basal RLU” value [9] was 1 and 0.6 and 1.2 and the “Fold of Basal RLU” value [10] was 1.3 fold and 1 fold and 1.2 fold and 0.8 fold. The “Fold of Basal RLU” value [11] was 2.7 fold and 3.1 fold and 3.2 fold, the “Fold of Basal RLU” value [12] was 0.9 fold and 1.1 fold and 0.6 fold and 1 fold and the “Fold of Basal RLU” value [13] was 0.9 and 1.3 and 0.8. For the same molecule, the “Fold of Basal RLU” value [14] was 1.5 and 1.4 and 1.6.

With `COC(=O)[C@](C)(NC(=O)c1cc(C)n(-c2cccc(C(F)(F)F)c2)n1)c1cccs1` [‘8690] the “bimane spectrum λmax” value (CB1R) was 459 nm.
